Source: publication PMC7018972, “Novel and selective inactivators of Triosephosphate isomerase with anti-trematode activity” (Scientific Reports, 2020)

What was measured:
FhTIM = FhTIM (Fasciola hepatica, UniProt S4UI50); assay: Microscale thermophoresis (MST) binding to FhTIM
Procedure: MST experiments were performed according to the NanoTemper technologies protocol in a Monolith NT.115 (red/blue) instrument (NanoTemper Technologies, München, Germany[36]). With this technique, the diffusion behavior of a labeled protein is measured when an infrared light excites the movement of the protein in capillaries. This behavior is the combination of two effects: the fast, local environment-dependent responses of the fluorophore to the temperature jump and the slower diffusive thermophoresis fluorescence changes. It will be modified when the protein is complexed with increasing amounts of unlabeled partners, leading to titration curves that can be fit for Kd estimation. In practice, FhTIM was labeled with the Monolith His-Tag Labeling Kit RED-tris-NTA (NanoTemper Technologies, München, Germany), as described by the manufacturer. The experiments were performed using 20% and 40% MST power and between 20–80% LED power at 24 °C. The MST traces were recorded using the standard parameters: 5 s MST power off, 30 s MST power on, and 5 s MST power off. The compounds were used at high concentrations (around 5 mM) in the bindings check assay with DMSO at 5% v/v. If the binding check was positive, then the affinity determination was performed with the same experimental settings, with serial 2x dilutions of the compound of interest.

human (HsTIM) = target: T1, human (HsTIM) (Homo sapiens, UniProt P60174); assay: Selectivity assay, inhibition of HsTIM; type: biochemical; conditions: read-out: inhibition against HsTIM
T1 construct: made in house; host or cells: Escherichia coli
Procedure: (§1) Expression and purification of proteins: FhTIM, RabbitTIM and HsTIM were expressed in Escherichia coli and purified as described in the literature[31],[37]. After purification, the enzyme, dissolved in 100 mM triethanolamine, 10 mM EDTA and 1 mM dithiothreitol (pH 8), was precipitated with ammonium sulfate (75% saturation) and stored at 4 °C. Before use, extensive dialysis against 100 mM triethanolamine/10 mM EDTA (pH 7.4) was performed. Protein concentration was determined by absorbance at 280 nm for FhTIM (ε = 33,460 M^−1cm^−1) and for RabbitTIM and HsTIM (ε = 33,460 M^−1cm^−1). Enzymatic activity was determined following the conversion of glyceraldehydes-3-phosphate into dihydroxyacetone phosphate in a coupled enzyme assay. The decrease in absorbance at 340 nm was followed in a multiplate reader VarioskanTM Flash Multimode Reader (Thermo ScientificTM, Waltham, MA, USA) at 38 °C. The reaction mixture (1 mL, pH 7.4) contained 100 mM triethanolamine, 10 mM EDTA, 0.2 mM NADH, 1 mM glyceraldehydes-3-phosphate and 0.9 units of α-glycerol phosphate dehydrogenase. The reaction was initiated by the addition of 5 ng/mL of the TIM of interest. For the inhibition studies, TIM was incubated at a concentration of 5 mg/mL in a buffer containing 100 mM triethanolamine, 10 mM EDTA, pH 7.4 and 10% of DMSO at 37 °C for 1 h. The mixture also contained the compounds, dissolved in DMSO, at the indicated concentrations. After 1 h, 10 µL were withdrawn and added to a final volume of 100 µL of the reaction mixture for the activity assay. The inhibition assay was performed in a 96-well microplate. None of the molecules tested here affected the activity of α-glycerol phosphate dehydrogenase, the enzyme used in the coupled assay. The IC50 value was taken as the concentration of drug needed to reduce the enzymatic activity to 50% by analysis using OriginLab8.5® sigmoidal regression (% of enzymatic activity vs. the logarithm of the compound concentration). The experiments were performed in triplicate in two independent experiments.

rabbit TIM = target: T2, rabbit TIM (Oryctolagus cuniculus, UniProt P00939); assay: Selectivity assay, inhibition of rabbit TIM; type: biochemical; conditions: read-out: inhibition against rabbit TIM
T2 construct: made in house; host or cells: Escherichia coli
Procedure: as §1

[1] = tested on: newly excysted juvenile (NEJ) F. hepatica; assay: In vitro NEJ treatment; type: cell-based, Fasciola hepatica; conditions: for IC50: Fasciola hepatica, NEJ
[2] = tested on: thioredoxin glutathione reductase; set-up: method as in PMID 22536349; conditions: cited from earlier work
NEJ = tested on: NEJ; set-up: method as in PMID 22536349; conditions: 48 h, fixed dose of 20 µM; cited from earlier work
[3] = tested on: Echinococcus granulosus protoscolex; set-up: method as in PMID 22536349; conditions: 48 h, fixed dose of 20 µM; cited from earlier work

Chain of FhTIM (S4UI50 entry or part of it): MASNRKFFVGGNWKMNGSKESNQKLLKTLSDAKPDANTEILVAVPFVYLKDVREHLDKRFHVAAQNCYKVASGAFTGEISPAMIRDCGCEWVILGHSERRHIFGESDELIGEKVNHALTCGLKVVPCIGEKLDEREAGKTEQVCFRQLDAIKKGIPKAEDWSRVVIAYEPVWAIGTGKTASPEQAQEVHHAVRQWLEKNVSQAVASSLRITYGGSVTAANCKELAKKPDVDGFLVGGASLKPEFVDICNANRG
T2 sequence (P00939 whole entry): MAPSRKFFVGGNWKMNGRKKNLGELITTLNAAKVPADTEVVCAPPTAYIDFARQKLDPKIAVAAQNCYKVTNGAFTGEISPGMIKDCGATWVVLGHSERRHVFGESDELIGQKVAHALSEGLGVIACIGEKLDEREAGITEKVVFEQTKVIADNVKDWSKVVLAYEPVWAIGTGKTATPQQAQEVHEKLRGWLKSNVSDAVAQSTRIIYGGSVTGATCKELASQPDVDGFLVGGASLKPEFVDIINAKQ
T1 sequence (P60174 whole entry): as the sequence (P00939 whole entry) above, with K20Q, N21S, T27G, S119A counted along it

SMILES	Kd (FhTIM; 24 °C)	inhibition at 100 µM (human (HsTIM))	inhibition at 100 µM (rabbit TIM)	IC50 ([1]; incubation time 72 h)	concentration of effect against juvenile and adult forms of F. hepatica ([1]; both forms, at 48 h)	Kd (FhTIM; abstract)	IC50 ([1]; incubation time 4 h)	inhibition of thioredoxin glutathione reductase in words [2]	effect on NEJ in words (NEJ)	effect on Echinococcus granulosus protoscolex in words [3]
CSc1nc2cc(Cl)c(Oc3cccc(Cl)c3Cl)cc2[nH]1 [Compound 1278, triclabendazole, reference compound]	1000 µM	< 20%	< 20%	> 50 µM	more than 50 µM	–	–	–	–	–
Cc1ccc(-c2nsc(S(=O)(=O)c3ccc(C)cc3)n2)cc1 [Compound 187]	0.07 ± 0.01 µM	< 20%	< 20%	–	–	0.066 µM	3 ± 0.5 µM	moderate inhibitor	showed effect	showed effect
